Experimental data reported in article PMC10247784, “Physiological activation of human and mouse bitter taste receptors by bile acids” (Communications Biology, 2023).

Biological target: T1, mouse Tas2r108 (Mus musculus, UniProt Q9JKT3)
T1 construct: expressed in transfected cells; host or cells: HEK293T-Gα16gust44
T1 sequence (Q9JKT3 1-297): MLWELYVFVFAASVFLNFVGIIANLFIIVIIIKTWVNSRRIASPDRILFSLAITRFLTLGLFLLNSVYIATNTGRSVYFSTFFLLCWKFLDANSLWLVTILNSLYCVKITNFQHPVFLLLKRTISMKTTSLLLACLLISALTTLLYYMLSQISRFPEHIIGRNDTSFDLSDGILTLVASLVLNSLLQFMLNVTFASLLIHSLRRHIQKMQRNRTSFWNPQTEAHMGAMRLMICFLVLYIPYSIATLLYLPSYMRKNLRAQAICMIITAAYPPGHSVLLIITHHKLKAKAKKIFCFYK
Experiment: Calcium imaging assay (FLIPR), HEK293T-Gα16gust44 cells transfected with mouse Tas2r108
Format: cell-based
Details: for Δ F/F: Tas2r108
Protocol: This set of bile acids was chosen because of their commercial availability in high purities, their diversity within the class of bile acids and their previous detection and quantitation in human blood. Stock solutions were prepared in DMSO.
As basal growth medium for the HEK293T-Gα16gust44 cell line[17],[59] served Dulbecco’s modified eagle medium (DMEM) (Thermo Fisher Scientific, Darmstadt, Germany) supplemented with 10 % fetal bovine serum (Sigma-Aldrich, Steinheim, Germany), 2 mM L-glutamine (Sigma-Aldrich, Steinheim, Germany), 100 units/ml penicillin (Sigma Aldrich, Steinheim, Germany) and 100 µg/ml streptomycin (Sigma Aldrich, Steinheim, Germany). Growth conditions were 37 °C, 5 % CO2 and saturated air-humidity[60].
HEK293T-Gα16gust44 cells were seeded on poly-D-lysine (10 µg/ml) coated 96-well plates to reach a confluence of 40-60 % the next day. For transient transfection 150 ng of plasmid DNA containing the receptor of interest and 0.3 µl lipofectamine 2000 (Thermo Fisher Scientific, Darmstadt, Germany) per well were used and transfection took place according to the manual of lipofectamine 2000. […] The empty vector DNA (mock) was transfected as negative control[14],[41].
Cells were loaded using the calcium-sensitive fluorescent dye Fluo-4-AM (Abcam, Cambridge, Great Britain) in the presence of 2.5 mM probenecid (Sigma-Aldrich, Steinheim, Germany) the day after transfection[13],[41]. 1 h after loading, cells were washed with C1 buffer using a BioTek Cell Washer, incubated in the dark for half an hour and washed again. For automated agonist application and measurement of fluorescence changes, a FLIPR^TETRA device (Molecular Devices, San José, United States) was used. Viability of cells was tested by application of 100 nM Somatostatin 14 (Bachem, Bubendorf, Switzerland)[42].
Measured data were negative control corrected by subtracting the signal of the mock-transfected cells and exported to Microsoft Excel using the FLIPR software ScreenWorks 4.2. In Microsoft Excel software, standardization of maximum fluorescence intensities to the basal fluorescence and normalization to the buffer-only control was done to calculate the relative fluorescence changes (ΔF/F).
Initial screening experiments performed in duplicate wells were confirmed by at least one replication and representative traces were selected for display. All dose-response relationships were determined by three independent experiments (biological replicates) performed in duplicates (technical replicates). Threshold concentrations, defined as lowest substance concentrations leading to statistically significant elevated fluorescence changes in receptor-transfected cells compared with empty vector-transfected cells, were determined using SigmaPlot with Student’s t-test to evaluate statistical significance (p < 0.01).

## C[C@H](CCC(=O)NCC(=O)O)[C@H]1CC[C@H]2[C@@H]3[C@H](O)C[C@@H]4C[C@H](O)CC[C@]4(C)[C@H]3C[C@H](O)[C@]12C [Glycocholic Acid, glycocholic acid]
conc. 0,01 mM
  Δ F/F: 0.0107
conc. 0,1 mM
  Δ F/F: 0.0182
conc. 0,03 mM
  Δ F/F: 0.00676
conc. 0,3 mM
  Δ F/F: 0.06222
conc. 0,001 mM
  Δ F/F: 0.002806
conc. 1 mM
  Δ F/F: 0.4313
conc. 0,003 mM
  Δ F/F: 0.003344
Time 0 s
  RLU: 0 RLU
Time 2 s
  RLU: 7.69 RLU
Time 4 s
  RLU: 11.6885 RLU
Time 6 s
  RLU: 14.9144 RLU
Time 8 s
  RLU: 2.856 RLU
Time 12 s
  RLU: -20.1582 RLU
Time 14 s
  RLU: -24.1348 RLU
Time 16 s
  RLU: -22.3266 RLU
Time 18 s
  RLU: -18.1852 RLU
Time 137.562 s
  RLU: 194.213 RLU
Time 143.562 s
  RLU: 209.767 RLU
Time 149.562 s
  RLU: 181.475 RLU
Time 155.562 s
  RLU: 183.974 RLU
Time 161.562 s
  RLU: 173.161 RLU
Time 167.562 s
  RLU: 179.231 RLU
Time 173.562 s
  RLU: 187.201 RLU
Time 179.562 s
  RLU: 174.25 RLU
Time 185.562 s
  RLU: 178.039 RLU
Time 191.562 s
  RLU: 190.798 RLU
Time 197.562 s
  RLU: 173.368 RLU
Time 203.562 s
  RLU: 190.575 RLU
Time 209.562 s
  RLU: 197.772 RLU
Time 215.562 s
  RLU: 163.432 RLU
Time 221.562 s
  RLU: 153.254 RLU
Time 227.562 s
  RLU: 164.71 RLU
Time 233.562 s
  RLU: 163.97 RLU
Time 239.562 s
  RLU: 147.809 RLU
Time 245.562 s
  RLU: 173.351 RLU
Time 293.562 s
  RLU: 149.968 RLU
Time 299.562 s
  RLU: 165.311 RLU
Time 305.562 s
  RLU: 159.539 RLU
Time 311.562 s
  RLU: 142.659 RLU
Time 317.562 s
  RLU: 150.371 RLU
Time 323.562 s
  RLU: 171.186 RLU
Time 329.562 s
  RLU: 175.087 RLU
Time 335.562 s
  RLU: 172.597 RLU
Time 341.562 s
  RLU: 183.065 RLU
Time 347.562 s
  RLU: 201.017 RLU
Time 353.562 s
  RLU: 156.745 RLU
Time 359.562 s
  RLU: 154.549 RLU
P < 0.01 vs empty vector
  Activation threshold concentration Tas2r108: 100 µM
Time 18.797 s
  RLU: -15.9795 RLU
Time 20.797 s
  RLU: -38.1063 RLU
Time 22.797 s
  RLU: -53.0656 RLU
Time 24.797 s
  RLU: -41.093 RLU
Time 26.797 s
  RLU: 10.1284 RLU
Time 28.797 s
  RLU: -11.2259 RLU
Time 30.797 s
  RLU: 42.3249 RLU
Time 32.797 s
  RLU: 14.625 RLU
Time 34.797 s
  RLU: 31.6874 RLU
Time 36.797 s
  RLU: 61.9173 RLU
Time 38.797 s
  RLU: 95.7369 RLU
Time 40.797 s
  RLU: 96.8837 RLU
Time 42.797 s
  RLU: 120.977 RLU
Time 44.797 s
  RLU: 126.004 RLU
Time 46.797 s
  RLU: 150.942 RLU
Time 48.797 s
  RLU: 139.074 RLU
Time 50.797 s
  RLU: 165.429 RLU
Time 52.797 s
  RLU: 178.894 RLU
Time 54.797 s
  RLU: 165.569 RLU
Time 56.797 s
  RLU: 184.08 RLU
Time 58.797 s
  RLU: 203.839 RLU
Time 60.797 s
  RLU: 208.856 RLU
Time 62.797 s
  RLU: 198.008 RLU
Time 64.797 s
  RLU: 192.835 RLU
Time 66.797 s
  RLU: 228.59 RLU
Time 68.797 s
  RLU: 198.902 RLU
Time 70.797 s
  RLU: 190.075 RLU
Time 72.797 s
  RLU: 224.267 RLU
Time 74.797 s
  RLU: 237.802 RLU
Time 76.797 s
  RLU: 195.521 RLU
Time 78.797 s
  RLU: 205.632 RLU
Time 80.797 s
  RLU: 224.221 RLU
Time 82.797 s
  RLU: 233.724 RLU
Time 84.797 s
  RLU: 213.598 RLU
Time 86.797 s
  RLU: 226.297 RLU
Time 88.797 s
  RLU: 230.997 RLU
Time 90.797 s
  RLU: 224.416 RLU
Time 92.797 s
  RLU: 254.391 RLU
Time 94.797 s
  RLU: 247.364 RLU
Time 96.797 s
  RLU: 231.951 RLU
Time 98.797 s
  RLU: 231.597 RLU
Time 100.797 s
  RLU: 210.393 RLU
Time 102.797 s
  RLU: 230.574 RLU
Time 104.797 s
  RLU: 222.002 RLU
Time 106.797 s
  RLU: 222.39 RLU
Time 108.797 s
  RLU: 212.16 RLU
Time 110.797 s
  RLU: 216.252 RLU
Time 112.797 s
  RLU: 216.052 RLU
Time 114.797 s
  RLU: 221.895 RLU
Time 116.797 s
  RLU: 215.342 RLU
Time 118.797 s
  RLU: 209.462 RLU
Time 120.797 s
  RLU: 222.728 RLU
Time 122.797 s
  RLU: 206.205 RLU
Time 124.797 s
  RLU: 193.188 RLU
Time 126.797 s
  RLU: 207.494 RLU
Time 128.797 s
  RLU: 210.082 RLU
Time 130.797 s
  RLU: 216.943 RLU
Time 132.797 s
  RLU: 210.174 RLU
Time 134.797 s
  RLU: 194.975 RLU
Time 136.797 s
  RLU: 218.165 RLU
